Where a SMILES comes first, the peptide text is derived from it.
Columns and labels:
[1] = target: T1, Kappa-type opioid receptor (Homo sapiens, UniProt P41145); assay: Displacement of [3H]U69593 from KOR (unknown origin) expressed in HEK cells
[2] = target: T1, Kappa-type opioid receptor; assay: Agonist activity at KOR (unknown origin) expressed in HEK cells assessed as reduction in cAMP accumulation by split luciferase assay

T1 sequence (P41145 whole entry): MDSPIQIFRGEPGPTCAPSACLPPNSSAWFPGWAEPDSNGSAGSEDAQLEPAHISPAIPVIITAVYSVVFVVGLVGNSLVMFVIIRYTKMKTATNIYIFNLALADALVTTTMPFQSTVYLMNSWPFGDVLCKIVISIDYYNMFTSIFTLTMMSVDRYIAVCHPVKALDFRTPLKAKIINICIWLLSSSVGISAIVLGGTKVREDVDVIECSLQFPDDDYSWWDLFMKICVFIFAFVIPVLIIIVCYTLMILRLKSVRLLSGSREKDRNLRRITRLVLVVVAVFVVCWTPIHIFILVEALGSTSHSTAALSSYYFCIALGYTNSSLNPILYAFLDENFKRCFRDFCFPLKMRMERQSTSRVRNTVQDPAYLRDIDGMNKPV

Structure (SMILES): CC1(C)SSC(C)(C)[C@H](NC(=O)[C@@H](N)Cc2ccc(O)cc2)C(=O)NCC(=O)N[C@@H](Cc2ccccc2)C(=O)N2CCN(CC2)C(=O)[C@H](Cc2ccccc2)NC(=O)CNC(=O)[C@H]1NC(=O)[C@@H](N)Cc1ccc(O)cc1 (HELM PEPTIDE1{Y.[Pen].G.F}|PEPTIDE2{Y.[Pen].G.F}|CHEM1{[C1CN([*:2])CCN1[*:1]]}$PEPTIDE1,PEPTIDE2,2:R3-2:R3|PEPTIDE1,CHEM1,4:R2-1:R1|PEPTIDE2,CHEM1,4:R2-1:R2$$$V2.0)
- Ki [1]: 5.6 nM
- EC50 [2]: 269 nM

From BindingDB's records for doi:10.1016/j.bmc.2018.05.045 (University of Arizona, 2018)
